# Assay results published in US20250195530A1, “POLQ INHIBITORS” (ASTRAZENECA AB, priority 2022, published 2025).
# Where two headings read alike, the source gives them in different places.
# Tested on: DLD-1 BRCA2−/− cells
# Test: Homologous recombination synthetic lethal inhibition of proliferation, DLD-1 BRCA2-/- (Cell Titre Glo 3D)
# Assay type: cell-based
# Conditions: for IC50: Homo sapiens; for POLQ PD Prolif Lumin BRCA2 −/− mean pIC50: DLD-1 BRCA2 −/−
# In short: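 Isogenic DLD-1 pair; BRCA2−/− seeded 3,000 cells/mL and read day 12, wt seeded 1,500 cells/mL and read day 7. 10-pt titration (top 10 μM, 3-fold), re-fed with compound day 6, 37 °C/5% CO2. CTG 3D endpoint; IC50 at 50% signal loss.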
# [1] = DLD-1, DLD-1 BRCA2 −/− cells, mean, read-out: POLQ PD Prolif Lumin BRCA2 −/− mean pIC50 (converted)
# [2] = DLD-1, DLD-1 BRCA2-/- proliferation, column head only partly shown, read-out: POLQ PD Prolif Lumin (converted)
# [3] = DLD-1, first proliferation column (c5), taken as DLD-1 BRCA2-/-, read-out: POLQ PD Prolif Lumin (converted)
# [4] = DLD-1, DLD-1 BRCA2 −/−, mean, read-out: POLQ PD Prolif Lumin BRCA2 −/− mean pIC50 (converted)
# [5] = DLD-1, first proliferation column (c5), DLD-1 BRCA2-/-, read-out: POLQ PD Prolif Lumin (converted)
# [6] = DLD-1, proliferation, luminescence, taken as DLD-1 BRCA2-/-, read-out: POLQ PD Prolif Lumin (converted)
smiles,measurement,setting,value
"CC1(Oc2ncnc3c2nc(-c2ccc(OCCN4CCN[C@@H](CC#N)C4)cc2Cl)n3Cc2ccccc2)CC1 [Example R23, (S)-2-(4-(2-(4-(9-benzyl-6-(1-methylcyclopropoxy)-9H-purin-8-yl)-3-chlorophenoxy)ethyl)piperazin-2-yl)acetonitrile]",IC50,"DLD-1, 288 h, DLD-1 BRCA2−/− cells, 12 days, read-out: POLQ PD Prolif Lumin BRCA2 −/− mean pIC50 (converted)",63.1 nM
"CC1(Oc2ncnc3c2nc(-c2ccc(CC(N)=O)cc2Cl)n3Cc2cccnc2C(F)(F)F)CC1 [Example T37, 2-(3-chloro-4-(6-(1-methylcyclopropoxy)-9-((2-(trifluoromethyl)pyridin-3-yl)methyl)-9H-purin-8-yl)phenyl)acetamide]",IC50,[1],> 10000 nM
"Cc1ccnc(Cn2c(-c3ccc(OCC(=O)N(C)C)cc3Cl)nc3c(OC4(C)CC4)ncnc32)c1 [Example T216, 2-(3-chloro-4-(6-(1-methylcyclopropoxy)-9-((4-methylpyridin-2-yl)methyl)-9H-purin-8-yl)phenoxy)-N,N-dimethylacetamide]",IC50,[2],316 nM
"Cc1ccnc(Cn2c(-c3ccc(OCC(=O)NC[C@H](C)O)cc3Cl)nc3c(OC4(C)CC4)ncnc32)c1 [Example T372, (S)-2-(3-chloro-4-(6-(1-methylcyclopropoxy)-9-((4-methylpyridin-2-yl)methyl)-9H-purin-8-yl)phenoxy)-N-(2-hydroxypropyl)acetamide]",IC50,[3],398 nM
"CC1(Oc2ncnc3c2nc(-c2ccc(CC(N)=O)cc2Cl)n3Cc2ccccc2)CC1 [Example T48, 2-(4-(9-benzyl-6-(1-methylcyclopropoxy)-9H-purin-8-yl)-3-chlorophenyl)acetamide]",IC50,[1],200 nM
"CC(CCOc1ccc(-c2nc3c(OC4(C)CC4)ncnc3n2Cc2cccc(Cl)c2F)c(Cl)c1)C(=O)O (single isomer, unassigned) [Example T270, 4-(3-chloro-4-(9-(3-chloro-2-fluorobenzyl)-6-(1-methylcyclopropoxy)-9H-purin-8-yl)phenoxy)-2-methylbutanoic acid]",IC50,[2],501 nM
"CC1(Oc2ncnc3c2nc(-c2ccc(OCCC(C)(C)C(=O)O)cc2Cl)n3Cc2cc(Cl)ccc2F)CC1 [Example U46, 4-(3-chloro-4-(9-(5-chloro-2-fluorobenzyl)-6-(1-methylcyclopropoxy)-9H-purin-8-yl)phenoxy)-2,2-dimethylbutanoic acid]",IC50,[4],31.6 nM
"CC1(Oc2ncnc3c2nc(-c2ccc(O[C@H]4CC[C@@H](C(=O)O)CC4)cc2Cl)n3Cc2cc(Cl)ccc2F)CC1 [Example U44, (1s,4s)-4-(3-chloro-4-(9-(5-chloro-2-fluorobenzyl)-6-(1-methylcyclopropoxy)-9H-purin-8-yl)phenoxy)cyclohexane-1-carboxylic acid]",POLQ PD Prolif Lumin BRCA2 −/− mean pIC50,mean,7.2
"CC(CCOc1ccc(-c2nc3c(OC4(C)CC4)ncnc3n2Cc2c(F)cccc2F)c(Cl)c1)C(=O)O (single isomer, unassigned) [Example T263, 4-(3-chloro-4-(9-(2,6-difluorobenzyl)-6-(1-methylcyclopropoxy)-9H-purin-8-yl)phenoxy)-2-methylbutanoic acid]",IC50,[2],794 nM
"Cc1ccnc(Cn2c(-c3ccc(OC4CCNC4=O)cc3Cl)nc3c(OC4(C)CC4)ncnc32)c1 (racemic) [Example T178, 3-(3-chloro-4-(6-(1-methylcyclopropoxy)-9-((4-methylpyridin-2-yl)methyl)-9H-purin-8-yl)phenoxy)pyrrolidin-2-one]",IC50,[5],501 nM
"CC(CCOc1ccc(-c2nc3c(OC4(C)CC4)ncnc3n2Cc2cc(Cl)ccc2OC(F)F)c(Cl)c1)C(=O)O (racemic) [Example U60, 4-(3-chloro-4-(9-(5-chloro-2-(difluoromethoxy)benzyl)-6-(1-methylcyclopropoxy)-9H-purin-8-yl)phenoxy)-2-methylbutanoic acid]",IC50,[4],126 nM
"CC(=O)NCCCOc1ccc(-c2nc3c(OC4(C)CC4)ncnc3n2Cc2cc(C)ccn2)c(Cl)c1 [Example T367, N-(3-(3-chloro-4-(6-(1-methylcyclopropoxy)-9-((4-methylpyridin-2-yl)methyl)-9H-purin-8-yl)phenoxy)propyl)acetamide]",IC50,[3],316 nM
"COc1ccnc(Cn2c(-c3ccc(CC(N)=O)cc3Cl)nc3c(OC4(C)CC4)ncnc32)c1 [Example T63, 2-(3-chloro-4-(9-((4-methoxypyridin-2-yl)methyl)-6-(1-methylcyclopropoxy)-9H-purin-8-yl)phenyl)acetamide]",IC50,[1],1000 nM
"Cc1ccnc(Cn2c(-c3ccc(C(=O)NC4(C)COC4)cc3Cl)nc3c(OC4(C)CC4)ncnc32)c1 [Example T317, 3-chloro-4-(6-(1-methylcyclopropoxy)-9-((4-methylpyridin-2-yl)methyl)-9H-purin-8-yl)-N-(3-methyloxetan-3-yl)benzamide]",IC50,[3],1000 nM
"CC1(Oc2ncnc3c2nc(-c2ccc(OCCN4C[C@H]5C[C@@H]4CN5)cc2Cl)n3Cc2cc(Cl)ccn2)CC1 [Example T485, 8-(4-(2-((1R,4R)-2,5-diazabicyclo[2.2.1]heptan-2-yl)ethoxy)-2-chlorophenyl)-9-((4-chloropyridin-2-yl)methyl)-6-(1-methylcyclopropoxy)-9H-purine]",IC50,[5],501 nM
"CC(CCOc1ccc(-c2nc3c(OC4(C)CC4)ncnc3n2Cc2cccc(Cl)c2)c(Cl)c1)C(=O)O (racemic) [Example T291, 4-(3-chloro-4-(9-(3-chlorobenzyl)-6-(1-methylcyclopropoxy)-9H-purin-8-yl)phenoxy)-2-methylbutanoic acid]",IC50,[2],158 nM
"CNC(=O)N1CC(Oc2ccc(-c3nc4c(OC5(C)CC5)ncnc4n3Cc3cc(C)ccn3)c(Cl)c2)C1 [Example T343, 3-(3-chloro-4-(6-(1-methylcyclopropoxy)-9-((4-methylpyridin-2-yl)methyl)-9H-purin-8-yl)phenoxy)-N-methylazetidine-1-carboxamide]",IC50,[3],398 nM
"Cc1ccnc(Cn2c(-c3ccc(N4C[C@H]5CCN[C@H]5C4)cc3Cl)nc3c(OC4(C)CC4)ncnc32)c1 [Example T494, 8-(2-chloro-4-((3aR,6aR)-hexahydropyrrolo[3,4-b]pyrrol-5(1H)-yl)phenyl)-6-(1-methylcyclopropoxy)-9-((4-methylpyridin-2-yl)methyl)-9H-purine]",IC50,[5],316 nM
"CC1(Oc2ncnc3c2nc(-c2ccc(O[C@H]4CC[C@H](C(=O)O)CC4)cc2Cl)n3Cc2cc(Cl)ccc2F)CC1 [Example U49, (1r,4r)-4-(3-chloro-4-(9-(5-chloro-2-fluorobenzyl)-6-(1-methylcyclopropoxy)-9H-purin-8-yl)phenoxy)cyclohexane-1-carboxylic acid]",POLQ PD Prolif Lumin BRCA2 −/− mean pIC50,mean,7.3
"Cc1ccnc(Cn2c(-c3ccc(OCC(F)CO)cc3Cl)nc3c(OC4(C)CC4)ncnc32)c1 (single isomer, unassigned) [Example T109, 3-(3-chloro-4-(6-(1-methylcyclopropoxy)-9-((4-methylpyridin-2-yl)methyl)-9H-purin-8-yl)phenoxy)-2-fluoropropan-1-ol]",IC50,[5],158 nM
"Cc1ccnc(Cn2c(-c3ccc(C(=O)N4C[C@@H]5C[C@H]4CO5)cc3Cl)nc3c(OC4(C)CC4)ncnc32)c1 [Example T416, ((1S,4S)-2-oxa-5-azabicyclo[2.2.1]heptan-5-yl)(3-chloro-4-(6-(1-methylcyclopropoxy)-9-((4-methylpyridin-2-yl)methyl)-9H-purin-8-yl)phenyl)methanone]",IC50,[6],1580 nM
"Cc1ccnc(Cn2c(-c3ccc(C(=O)N4CCC[C@H]4C#N)cc3Cl)nc3c(OC4(C)CC4)ncnc32)c1 [Example T404, (S)-1-(3-chloro-4-(6-(1-methylcyclopropoxy)-9-((4-methylpyridin-2-yl)methyl)-9H-purin-8-yl)benzoyl)pyrrolidine-2-carbonitrile]",IC50,[6],1260 nM
"CC1(Oc2ncnc3c2nc(-c2cccc(O[C@H]4C[C@@H](C(=O)O)C4)c2Cl)n3Cc2cccc(Cl)c2)CC1 [Example T257, (1s,3s)-3-(2-chloro-3-(9-(3-chlorobenzyl)-6-(1-methylcyclopropoxy)-9H-purin-8-yl)phenoxy)cyclobutane-1-carboxylic acid]",POLQ PD Prolif Lumin,"DLD-1 BRCA2-/- proliferation, column head only partly shown",7
"CC1(Oc2ncnc3c2nc(-c2ccc(CC(N)=O)cc2Cl)n3Cc2nnc(C3CC3)s2)CC1 [Example T20, 2-(3-chloro-4-(9-((5-cyclopropyl-1,3,4-thiadiazol-2-yl)methyl)-6-(1-methylcyclopropoxy)-9H-purin-8-yl)phenyl)acetamide]",IC50,[1],2510 nM
"Cc1ccnc(Cn2c(-c3ccc(N4CCC(O)CC4=O)cc3Cl)nc3c(OC4(C)CC4)ncnc32)c1 (racemic) [Example T321, 1-(3-chloro-4-(6-(1-methylcyclopropoxy)-9-((4-methylpyridin-2-yl)methyl)-9H-purin-8-yl)phenyl)-4-hydroxypiperidin-2-one]",IC50,[3],3980 nM
"Cc1ccnc(Cn2c(-c3ccc(OCC(=O)N4CCC[C@@H]4CO)cc3Cl)nc3c(OC4(C)CC4)ncnc32)c1 [Example T579, (R)-2-(3-chloro-4-(6-(1-methylcyclopropoxy)-9-((4-methylpyridin-2-yl)methyl)-9H-purin-8-yl)phenoxy)-1-(2-(hydroxymethyl)pyrrolidin-1-yl)ethan-1-one]",IC50,"DLD-1, first proliferation column, DLD-1 BRCA2-/-, read-out: POLQ PD Prolif Lumin (converted)",501 nM
"Cc1ccnc(Cn2c(-c3ccc(OCC(=O)N4CCC[C@H]4C#N)cc3Cl)nc3c(OC4(C)CC4)ncnc32)c1 [Example T539, (S)-1-(2-(3-chloro-4-(6-(1-methylcyclopropoxy)-9-((4-methylpyridin-2-yl)methyl)-9H-purin-8-yl)phenoxy)acetyl)pyrrolidine-2-carbonitrile]",IC50,[5],316 nM
